Data from ChEMBL document CHEMBL1129834, “A boronated benzamide as melanoma-seeking agent” (Bioorg Med Chem Lett, 1997).

Key:
[1] = Compound was evaluated for the biodistribution of tumor-imaging agent in B16 melanoma bearing mice brain upon intraveneous administration at 2.6 gmol/mice after 3 hour; assay type: ADME, organism-based; details: mus sp., in vivo, iv
[2] = Compound was evaluated for the biodistribution of tumor-imaging agent in B16 melanoma bearing mice upon intraveneous administration at 2.6 gmol/mice after 3 hour; assay type: ADME, organism-based; details: mus sp., in vivo, iv
[3] = Compound was evaluated for the biodistribution of tumor-imaging agent in B16 melanoma bearing mice blood upon intraveneous administration at 2.6 gmol/mice after 3 hour; assay type: ADME, organism-based; details: mus sp., in vivo, iv
[4] = Compound was evaluated for the biodistribution of tumor-imaging agent in B16 melanoma bearing mice lungs upon intraveneous administration at 2.6 gmol/mice after 3 hour; assay type: ADME, organism-based; details: mus sp., in vivo, iv
[5] = Compound was evaluated for the biodistribution of tumor-imaging agent in B16 melanoma bearing mice muscle upon intraveneous administration at 2.6 gmol/mice after 24 hour; assay type: ADME, organism-based, Muscle tissue; details: mus sp., in vivo, iv
[6] = Compound was evaluated for the biodistribution of tumor-imaging agent in B16 melanoma bearing mice spleen upon intraveneous administration at 2.6 gmol/mice after 1 hour; assay type: ADME, organism-based; details: mus sp., in vivo, iv
[7] = Compound was evaluated for the biodistribution of tumor-imaging agent in B16 melanoma bearing mice liver upon intraveneous administration at 2.6 gmol/mice after 3 hour; assay type: ADME, organism-based; details: mus sp., in vivo, iv
[8] = Compound was evaluated for the biodistribution of tumor-imaging agent in B16 melanoma bearing mice brain upon intraveneous administration at 2.6 gmol/mice after 1 hour; assay type: ADME, organism-based; details: mus sp., in vivo, iv
[9] = Compound was evaluated for the biodistribution of tumor-imaging agent in B16 melanoma bearing mice muscle upon intraveneous administration at 2.6 gmol/mice after 1 hour; assay type: ADME, organism-based, Muscle tissue; details: mus sp., in vivo, iv
[10] = Acute toxicity of compound in OF1 mice; assay type: organism-based; details: OF1, mouse, in vivo
[11] = Compound was evaluated for the biodistribution of tumor-imaging agent in B16 melanoma bearing mice uvea upon intraveneous administration at 2.6 gmol/mice after 3 hour; assay type: ADME, organism-based, Uveal tract; details: mus sp., in vivo, iv
[12] = Compound was evaluated for the biodistribution of tumor-imaging agent in B16 melanoma bearing mice kidney upon intraveneous administration at 2.6 gmol/mice after 24 hour; assay type: ADME, organism-based; details: mus sp., in vivo, iv
[13] = Compound was evaluated for the biodistribution of tumor-imaging agent in B16 melanoma bearing mice upon intraveneous administration at 2.6 gmol/mice after 24 hour; assay type: ADME, organism-based; details: mus sp., in vivo, iv
[14] = Compound was evaluated for the biodistribution of tumor-imaging agent in B16 melanoma bearing mice kidney upon intraveneous administration at 2.6 gmol/mice after 3 hour; assay type: ADME, organism-based; details: mus sp., in vivo, iv
[15] = Compound was evaluated for the biodistribution of tumor-imaging agent in B16 melanoma bearing mice liver upon intraveneous administration at 2.6 gmol/mice after 24 hour; assay type: ADME, organism-based; details: mus sp., in vivo, iv
[16] = Compound was evaluated for the biodistribution of tumor-imaging agent in B16 melanoma bearing mice liver upon intraveneous administration at 2.6 gmol/mice after 1 hour; assay type: ADME, organism-based; details: mus sp., in vivo, iv
[17] = Compound was evaluated for the biodistribution of tumor-imaging agent in B16 melanoma bearing mice upon intraveneous administration at 2.6 gmol/mice after 1 hour; assay type: ADME, organism-based; details: mus sp., in vivo, iv
[18] = Compound was evaluated for the biodistribution of tumor-imaging agent in B16 melanoma bearing mice lungs upon intraveneous administration at 2.6 gmol/mice after 1 hour; assay type: ADME, organism-based; details: mus sp., in vivo, iv
[19] = Compound was evaluated for the biodistribution of tumor-imaging agent in B16 melanoma bearing mice blood upon intraveneous administration at 2.6 gmol/mice after 1 hour; assay type: ADME, organism-based; details: mus sp., in vivo, iv
[20] = Compound was evaluated for the biodistribution of tumor-imaging agent in B16 melanoma bearing mice kidney upon intraveneous administration at 2.6 gmol/mice after 1 hour; assay type: ADME, organism-based; details: mus sp., in vivo, iv
[21] = Compound was evaluated for the biodistribution of tumor-imaging agent in B16 melanoma bearing mice spleen upon intraveneous administration at 2.6 gmol/mice after 3 hour; assay type: ADME, organism-based; details: mus sp., in vivo, iv
[22] = Partition coefficient (logP); assay type: physicochemical; details: octanol/water
[23] = Compound was evaluated for the biodistribution of tumor-imaging agent in B16 melanoma bearing mice uvea upon intraveneous administration at 2.6 gmol/mice after 24 hour; assay type: ADME, organism-based, Uveal tract; details: mus sp., in vivo, iv
[24] = Compound was evaluated for the biodistribution of tumor-imaging agent in B16 melanoma bearing mice muscle upon intraveneous administration at 2.6 gmol/mice after 3 hour; assay type: ADME, organism-based, Muscle tissue; details: mus sp., in vivo, iv

For `CCN(CC)CCNC(=O)c1ccc(B2OCCCO2)cc1`, the Injected dose/g [1] was 0.18%, the Injected dose/g [2] was 2.89% and the Injected dose/g [3] was 0.97%. The Injected dose/g [4] was 1.24%, the Injected dose/g [5] was 0.04% and the Injected dose/g [6] was 2.61%. It also gave an Injected dose/g [7] of 4.76%, an Injected dose/g [8] of 0.19% and an Injected dose/g [9] of 2.95%. It also gave an LD50 [10] of 1860 µmol/kg, an Injected dose/g [11] of 2.78% and an Injected dose/g [12] of 0.13%. It also gave an Injected dose/g [13] of 0.52%, an Injected dose/g [14] of 3.38% and an Injected dose/g [15] of 0.22%. For the same compound, the Injected dose/g [16] was 5.11%, the Injected dose/g [17] was 3.26% and the Injected dose/g [18] was 1.91%. It also gave an Injected dose/g [19] of 2.53%, an Injected dose/g [20] of 4.88% and an Injected dose/g [21] of 1.53%. The logP [22] was -1, the Injected dose/g [23] was 0.84% and the Injected dose/g [24] was 1.96%.
